According to patent US20220288154A1, “GNRH ANTAGONISTS FOR THE TREATMENT OF ESTROGEN-DEPENDENT DISORDERS” (ObsEva S.A., priority 2019, published 2022):
Marks after values point to notes of the source that are not given here.

Experiments:
[1] = PRIMROSE 1 and PRIMROSE 2: lumbar spine bone mineral density; type: in vivo, human; settings: 100 mg/day or 200 mg/day + ABT; 24 and 52 weeks
Protocol: To evaluate the safety of compound (VI), patients' bone mineral density levels were measured at baseline and at various timepoints during the studies.

[2] = tested on: human female patients diagnosed as having uterine fibroids; assay: PRIMROSE 2 Phase 3 placebo-controlled trial in uterine fibroids; type: in vivo; settings: for patients achieving menstrual blood loss ≤80 mL and ≥50% reduction from baseline: 52 weeks
Protocol: (§1) The PRIMROSE 1 study, conducted in the United States, enrolled 526 women. The PRIMROSE 2 study, conducted in the United States and Europe, enrolled 535 women. Patients were randomized to one of several cohorts: […] […] Pain levels were measured using a Verbal Rating Score (VRS), as described herein. Patients were also assessed to determine the proportion that reported an improvement in quality of life using the Uterine Fibroids Symptoms and Health-Related Quality of Life questionnaire.

human GnRH receptor = biological target: T1, human GnRH receptor (Homo sapiens, UniProt P30968); assay: Affinity for human GnRH receptor; type: binding
T1 sequence (P30968 1-328): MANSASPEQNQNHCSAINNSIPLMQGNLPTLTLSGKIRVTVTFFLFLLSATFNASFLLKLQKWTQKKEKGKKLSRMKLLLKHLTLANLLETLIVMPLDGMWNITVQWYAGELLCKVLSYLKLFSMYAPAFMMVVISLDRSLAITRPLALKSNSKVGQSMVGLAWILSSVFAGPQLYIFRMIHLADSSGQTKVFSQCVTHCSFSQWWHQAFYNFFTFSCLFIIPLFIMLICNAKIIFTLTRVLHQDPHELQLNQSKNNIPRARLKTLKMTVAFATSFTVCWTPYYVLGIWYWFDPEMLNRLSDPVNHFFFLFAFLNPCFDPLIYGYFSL

[3] = tested on: human female patients diagnosed as having uterine fibroids; assay: PRIMROSE 1 Phase 3 placebo-controlled trial in uterine fibroids; type: in vivo
Protocol: as §1

[4] = in vivo
Protocol: BMD of the femoral neck, total hip and lumbar spine was assessed by DXA at baseline and after 12 and 24 weeks of treatment. Reading of DXA scans and monitoring of scan quality, including cross-calibration between sites, was centralized.
All bone mineral density measurements shown below were obtained by assessing bone mineral density at each patient's spine.

[5] = tested on: human female patients diagnosed as having endometriosis; assay: Phase 2b placebo-controlled trial in endometriosis: endometriosis-associated pain (daily electronic diary); type: in vivo; settings: for Dyspareunia Mean (SD) Change from baseline (CFB): 0-3 VRS score; for Dyschezia Mean (SD) CFB: 0-10 NRS score; for Overall Pelvic Pain Responder Rate (VRS score reduction of >30% from baseline): after 52 weeks
Protocol: This example describes the results of a Phase 2b, double-blind, randomized, placebo-controlled, multicenter, human clinical trial undertaken to evaluate the efficacy of a GnRH antagonist represented by formula (VI) in a series of patients suffering from an estrogen-dependent disease. In this trial, a series of human female patients diagnosed as having endometriosis were administered the choline salt of 3-[2-fluoro-5-(2,3-difluoro-6-methoxybenzyloxy)4-methoxyphenyl]-2,4-dioxo-1,2,3,4-tetrahydrothieno[3,4d]pyrimidine-5-carboxylic acid periodically over the course of a 52-week treatment period. After 52 weeks of treatment, the patients were monitored for severity of disease symptoms and bone mineral density.
Participants were women aged 18 to 45 years with surgically confirmed endometriosis and moderate to severe EAP. Women with a history of osteoporosis or other metabolic bone disease were excluded. Certain subjects completing an initial 24-week treatment period were invited to continue in a treatment extension phase, resulting in a total of up to 52 weeks of treatment. Subjects that completed 52 weeks of treatment constituted the treatment extension analysis set (TEAS) of patients.
Patients were randomized to either (i) 50 mg/day, 75, mg/day, 100 mg/day, or 200 mg/day of 3-[2-fluoro-5-(2,3-difluoro-6-methoxybenzyloxy)4-methoxyphenyl]-2,4-dioxo-1,2,3,4-tetrahydrothieno[3,4d]pyrimidine-5-carboxylic acid, administered as a choline salt, or (ii) matching placebo. Patients assigned to the placebo cohort were switched to 100 mg/day of 3-[2-fluoro-5-(2,3-difluoro-6-methoxybenzyloxy)4-methoxyphenyl]-2,4-dioxo-1,2,3,4-tetrahydrothieno[3,4d]pyrimidine-5-carboxylic acid at week 12.
Patients that received 75 mg/day of compound (VI) were divided into two groups: those that received a fixed dose (FD) of compound (VI) at 75 mg/day throughout the 52-week treatment period, and those that received a titrated dose (TD) of 75 mg/day of compound (VI) for the first 12 weeks of the treatment period, followed by a daily dose of either 50 mg, 75 mg, or 100 mg of the compound depending on each patient's serum E2 concentration after 4 weeks or 8 weeks of treatment. Dosages from week 12 onward for patients in the 75 mg/day TD cohort were determined according to the following schedule:
Patients that were treated with 200 mg/day of the compound at the 24-week timepoint in the treatment period were switched to 100 mg/day for the final […] of the study.
EAP was assessed using questionnaires in a daily electronic diary. Mean 28-day scores for pelvic pain were calculated at each month up to 12 months and compared to baseline. Efficacy was assessed as the proportion of patients who had at least 30% reduction in OPP at 12 weeks. DYS, NMPP, dyspareunia, and dyschezia were also assessed. […]

[6] = 200 mg/day to week 24, then 100 mg/day, 52 weeks

COc1cc(F)c(-n2c(=O)[nH]c3csc(C(=O)O)c3c2=O)cc1OCc1c(OC)ccc(F)c1F [Compound (VI), 3-[2-fluoro-5-(2,3-difluoro-6-methoxybenzyloxy)4-methoxyphenyl]-2,4-dioxo-1,2,3,4-tetrahydrothieno[3,4d]pyrimidine-5-carboxylic acid]
effect on lumbar spine bone mineral density [1]: does not induce a substantial decrease in bone mineral density
p value: Improvement in quality of life, Change from baseline in QoL symptom severity score (LS mean) ([2]; 100 mg/day): p = 0.004
patients achieving menstrual blood loss ≤80 mL and ≥50% reduction from baseline ([2]; 100 mg/day without ABT): 53.2%
patients achieving menstrual blood loss ≤80 mL and ≥50% reduction from baseline ([2]; 200 mg/day + ABT): 91.6%
p value: Improvement in quality of life, Change from baseline in QoL symptom severity score (LS mean) ([2]; 200 mg/day + once-daily ABT): p < 0.001
affinity for human GnRH receptor (human GnRH receptor): 27.4 nM
p value: Improvement in quality of life, Change from baseline in QoL symptom severity score (LS mean) ([3]; 100 mg/day): p = 0.002
patients achieving menstrual blood loss ≤80 mL and ≥50% reduction from baseline ([3]; 100 mg/day without ABT, 24 weeks): 56.4%
patients achieving menstrual blood loss ≤80 mL and 50% reduction from baseline ([3]; 200 mg/day + ABT (1.0 mg E2 + 0.5 mg NETA), 24 weeks): 75.5%
p value: Improvement in quality of life, Change from baseline in QoL symptom severity score (LS mean) ([3]; 200 mg/day + once-daily ABT): p < 0.001

COc1cc(F)c(-n2c(=O)[nH]c3csc(C(=O)O)c3c2=O)cc1OCc1c(OC)ccc(F)c1F [GnRH antagonist, 3-[2-fluoro-5-(2,3-difluoro-6-methoxybenzyloxy)4-methoxyphenyl]-2,4-dioxo-1,2,3,4-tetrahydrothieno[3,4d]pyrimidine-5-carboxylic acid]
average bone mineral density losses [4]: less than 5%
Dyspareunia Mean (SD) Change from baseline (CFB) ([5]; 50 mg/day, 12 weeks): −0.6 (0.7)
Dyspareunia Mean (SD) Change from baseline (CFB) ([5]; 50 mg/day, 24 weeks): −0.7 (0.8)
Dyspareunia Mean (SD) Change from baseline (CFB) ([5]; 50 mg/day, 52 weeks): −0.5 (1.1)
Dyspareunia Mean (SD) Change from baseline (CFB) ([5]; 75 mg/day, 12 weeks): −0.7 (0.8)
Dyspareunia Mean (SD) Change from baseline (CFB) ([5]; 75 mg/day, 24 weeks): −0.7 (0.8)
Dyspareunia Mean (SD) Change from baseline (CFB) ([5]; 75 mg/day, 52 weeks): −0.9 (0.8)
Dyspareunia Mean (SD) Change from baseline (CFB) ([5]; 100 mg/day, 12 weeks): −0.7 (0.9)
Dyspareunia Mean (SD) Change from baseline (CFB) ([5]; 100 mg/day, 24 weeks): −0.6 (0.8)
Dyspareunia Mean (SD) Change from baseline (CFB) ([5]; 100 mg/day, 52 weeks): −0.7 (1.1)
Dyspareunia Mean (SD) Change from baseline (CFB) [5, 6]: −0.9 (0.9)
Dyspareunia Mean (SD) Change from baseline (CFB) ([5]; 200 mg/day, 12 weeks): −0.8 (1.1)*
Dyspareunia Mean (SD) Change from baseline (CFB) ([5]; 200 mg/day, 24 weeks): −1.0 (1.0)
Dyschezia Mean (SD) CFB ([5]; 50 mg/day, 12 weeks): −1.4 (1.7)
Dyschezia Mean (SD) CFB ([5]; 50 mg/day, 24 weeks): −1.5 (2.1)
Dyschezia Mean (SD) CFB ([5]; 50 mg/day, 52 weeks): −2.3 (1.8)
Dyschezia Mean (SD) CFB ([5]; 75 mg/day, 12 weeks): −2.1 (2.5)*
Dyschezia Mean (SD) CFB ([5]; 75 mg/day, 24 weeks): −2.2 (2.5)
Dyschezia Mean (SD) CFB ([5]; 75 mg/day, 52 weeks): −2.1 (2.9)
Dyschezia Mean (SD) CFB ([5]; 100 mg/day, 12 weeks): −2.0 (1.8)*
Dyschezia Mean (SD) CFB ([5]; 100 mg/day, 24 weeks): −2.0 (2.3)
Dyschezia Mean (SD) CFB ([5]; 100 mg/day, 52 weeks): −2.9 (3.1)
Dyschezia Mean (SD) CFB [5, 6]: −2.6 (2.7)
Dyschezia Mean (SD) CFB ([5]; 200 mg/day, 12 weeks): −1.7 (2.3)*
Dyschezia Mean (SD) CFB ([5]; 200 mg/day, 24 weeks): −2.5 (2.6)
% responders DYS (dysmenorrhea) ([5]; 50 mg/day, 12 weeks): 43.3%
% responders NMPP (non-menstrual pelvic pain) ([5]; 50 mg/day, 12 weeks): 46.2%
% responders OPP (overall pelvic pain) ([5]; 50 mg/day, 12 weeks): 49.4%
% responders DYS (dysmenorrhea) ([5]; 50 mg/day, 24 weeks): 47.5%
% responders NMPP (non-menstrual pelvic pain) ([5]; 50 mg/day, 24 weeks): 50%
% responders OPP (overall pelvic pain) ([5]; 50 mg/day, 24 weeks): 52.5%
% responders DYS (dysmenorrhea) ([5]; 50 mg/day, 52 weeks): 50%
% responders NMPP (non-menstrual pelvic pain) ([5]; 50 mg/day, 52 weeks): 66.7%
% responders OPP (overall pelvic pain) ([5]; 50 mg/day, 52 weeks): 66.7%
Overall Pelvic Pain Responder Rate (VRS score reduction of >30% from baseline) ([5]; 75 mg once daily): 69.2%
% responders DYS (dysmenorrhea) ([5]; 75 mg/day, 12 weeks): 68.2* %
% responders NMPP (non-menstrual pelvic pain) ([5]; 75 mg/day, 12 weeks): 58.5* %
% responders OPP (overall pelvic pain) ([5]; 75 mg/day, 12 weeks): 61.5* %
% responders DYS (dysmenorrhea) ([5]; 75 mg/day, 24 weeks): 58.3%
% responders NMPP (non-menstrual pelvic pain) ([5]; 75 mg/day, 24 weeks): 72.9%
% responders OPP (overall pelvic pain) ([5]; 75 mg/day, 24 weeks): 70.8%
% responders DYS (dysmenorrhea) ([5]; 75 mg/day, 52 weeks): 69.2%
% responders NMPP (non-menstrual pelvic pain) ([5]; 75 mg/day, 52 weeks): 69.2%
% responders OPP (overall pelvic pain) ([5]; 75 mg/day, 52 weeks): 69.2%
% responders DYS (dysmenorrhea) ([5]; 100 mg/day, 12 weeks): 68.6* %
% responders NMPP (non-menstrual pelvic pain) ([5]; 100 mg/day, 12 weeks): 61.5* %
% responders OPP (overall pelvic pain) ([5]; 100 mg/day, 12 weeks): 56.4* %
% responders DYS (dysmenorrhea) ([5]; 100 mg/day, 24 weeks): 82.1%
% responders NMPP (non-menstrual pelvic pain) ([5]; 100 mg/day, 24 weeks): 64.1%
% responders OPP (overall pelvic pain) ([5]; 100 mg/day, 24 weeks): 66.7%
% responders DYS (dysmenorrhea) ([5]; 100 mg/day, 52 weeks): 69.2%
% responders NMPP (non-menstrual pelvic pain) ([5]; 100 mg/day, 52 weeks): 53.8%
% responders OPP (overall pelvic pain) ([5]; 100 mg/day, 52 weeks): 53.8%
Overall Pelvic Pain Responder Rate (VRS score reduction of >30% from baseline) ([5]; 200 mg once daily): 82.4%
% responders DYS (dysmenorrhea) [5, 6]: 64.7%
% responders NMPP (non-menstrual pelvic pain) [5, 6]: 76.5%
% responders OPP (overall pelvic pain) [5, 6]: 82.4%
% responders DYS (dysmenorrhea) ([5]; 200 mg/day, 12 weeks): 78.9* %
% responders NMPP (non-menstrual pelvic pain) ([5]; 200 mg/day, 12 weeks): 47.7%
% responders OPP (overall pelvic pain) ([5]; 200 mg/day, 12 weeks): 56.3* %
% responders DYS (dysmenorrhea) ([5]; 200 mg/day, 24 weeks): 84.1%
% responders NMPP (non-menstrual pelvic pain) ([5]; 200 mg/day, 24 weeks): 72.7%
% responders OPP (overall pelvic pain) ([5]; 200 mg/day, 24 weeks): 77.3%
